# Results taken from US20250325524A1, “COMPOSITIONS AND METHODS FOR TREATING RENAL INJURY” (CASE WESTERN RESERVE UNIVERSITY, priority 2018, published 2025).
# Entries after “also recorded” stand apart in the source; their conditions may differ.
# Legend:
# [1] = tested on: PGE2 receptors (EP1, EP2, EP3 and EP4) and adenosine receptor (A2A); experiment: renal IRI model: PGE2 receptors (EP1-EP4) and adenosine A2A receptor levels; format: in vivo, mice
# Procedure: (§1) Mice were anesthetized with isoflurane using a vaporizer and placed on a heating pad to maintain their body temperature at 37° C. Both renal arteries were identified through dorsal incisions and clamped for 20, 30, 35, or 37 minutes. Reperfusion was confirmed visually upon release of the clamps. Surgical wounds were closed, and mice were administered 1 mL of saline i.p. The mice were kept in a warm incubator until they regained consciousness and were allowed to recover with ad libitum access to food and water. […] Serum and kidney tissue were collected 24 hours after renal IRI.
# PGE2 receptors (EP1, EP2, EP3 and EP4) and adenosine receptor (A2A) mRNA levels were determined by real-time PCR with SYBR green PCR Master Mix and the primers listed in Table 1. Their protein levels were determined by western blotting assay and immunofluorescence analysis.
# [2] = tested on: HMGB1 and proinflammatory cytokines; experiment: renal IRI model: HMGB1 and cytokine levels; format: in vivo; settings: mice
# Procedure: as §1
# Inflammatory cytokine mRNA and protein levels were measured by real-time PCR and ELISA, respectively. Kidney tissue and serum were harvested after reperfusion for 24 h. Total RNA was extracted from frozen kidney tissue using TRIzol reagent (15596018; Invitrogen), according to the manufacturer's protocol. RNA was converted to cDNA using oligo-dT primers. IL-17, TNF-α, and […] levels were determined by real-time PCR with SYBR green PCR Master Mix and the primers listed in Table 1. For ELISA, frozen kidney tissues were homogenized in phosphate buffer. Serum IL-17 (M1700; R&D Systems), TNF-α (MTAOOB; R&D Systems), and IL-10β (MLBOOC; R&D Systems) were measured using commercial ELISA kits according to the manufacturer's instructions.
# [3] = tested on: mice with ischemic AKI; experiment: renal ischemia-reperfusion injury model: renal function (serum creatinine, NGAL, KIM-1); format: in vivo; settings: IRI-30 min, 24 hours reperfusion
# Procedure: as §1
# Renal function was assessed by determining the serum levels of creatinine (KB02-H1; Arbor Assays), Lipocalin-2 (NGAL; MLCN20; R&D Systems), and kidney injury molecule-1 (KIM-1; MKM100; R&D Systems) after reperfusion for 24 h.
# [4] = tested on: PGE2 levels; experiment: renal IRI model: time course of PGE2 in kidney tissue and serum; format: in vivo, mice
# Procedure: as §1
# (§2) […] Next, the kidney tissues (˜20 mg) were homogenized in 500 μL of cold PBS containing indomethacin (10 μg/mL) using a tissue homogenizer. The suspension was sonicated in an ice-water bath for 1 minute using cycles of 10 seconds of sonication with 10 seconds of cooling, and they were then centrifuged for 10 minutes at 12,000 rpm. The supernatant was collected for PGE2 assay. Protein concentrations were determined by BCA assay (23225; Thermo Scientific). The PGE2 level in the supernatant was measured using a PGE2 ELISA Kit (SKGE004B; R&D Systems) in triplicate. PGE2 levels were expressed as ng PGE2/mg protein.
# [5] = stability on incubation with hepatocyte extracts; format: in vitro ADME
# [6] = tested on: mice; experiment: toxicity after IP injection into mice
# [7] = tested on: PGE2 production by cell lines; experiment: PGE2 production by cell lines; format: cell-based
# [8] = tested on: endogenous PGE2 levels in kidney tissue; experiment: endogenous PGE2 levels in kidney tissue after i.p. injection; format: in vivo; settings: mice
# Procedure: as §2
# [9] = chemical stability in aqueous solutions; format: physicochemical; settings: over broad pH range
# [10] = tested on: mice with ischemic AKI; experiment: renal ischemia-reperfusion injury model: renal function (serum creatinine, NGAL, KIM-1); format: in vivo; settings: IRI mice, single pre-IRI dose
# [11] = tested on: mice with ischemic AKI; experiment: renal IRI model: necrotic and apoptotic cell death in the outer medulla; format: in vivo
# Procedure: as §1
# To evaluate necrosis, 5-μm-thick paraffin sections were stained with H&E. Tubular injury was scored semi quantitatively according to a scoring system by a pathologist who examined at least 20 separate fields (×400) in the outer medulla, which is the zone most sensitive to ischemic injury. The scoring system was as follows: 0, no damage; 1, patchy isolated unicellular necrosis; 2, tubular necrosis <25%; 3, tubular necrosis 25-50%; and 4, tubular necrosis >50%. At least 20 consecutive high-power fields (magnification, ×400) per section were scored by two operators blind to the details of the experiment. To analyze the frequency of apoptosis, 5-μm-thick paraffin sections were subjected to terminal deoxynucleotidyl transferase-mediated dUTP nick-end labeling (TUNEL) assay (APT110; Millipore) according to the manufacturer's protocol. TUNEL-positive cells were counted in at least five separate fields (×640 magnification) in the outer medulla, and the apoptosis index (%, number of apoptosis cells/total number of cells) was calculated using GENASIS software.
# [12] = stability on incubation with hepatocyte cell lines; format: in vitro ADME
# [13] = IRI mice, pretreatment, 0.5 hours, mRNA in kidney tissue
# [14] = kidney tissue, in comparison to sham and to IRI mice
# [15] = real-time PCR and ELISA, 3 doses 5 mg/kg
# [16] = real-time PCR at POD1, vs IRI-vehicle
# [17] = 5 mg/kg 1 hour before, immediately after, and 12 hours after IRI, vs IRI-vehicle
smiles,measurement,setting,value
CCCC[S+]([O-])c1sc2nc(-c3cccs3)cc(-c3ccccc3)c2c1N (stereo not shown) [SW033291],increase of A2A receptor over baseline,[1]; [13],1.6 fold
same,increase of EP4 receptor over baseline,[1]; [13],2.4 fold
same,EP1 receptor mRNA,"[1]; kidney tissue, IRI mice",without effecting
same,EP2 receptor mRNA,"[1]; kidney tissue, IRI mice",without effecting
same,EP3 receptor mRNA,"[1]; kidney tissue, IRI mice",without effecting
same,increase of EP4 receptor mRNA and protein levels,[1]; [14],up to 2.3 fold
same,levels of the adenosine A2A receptor protein,[1]; [14],induced
same,IL-1B protein,"[2]; ELISA, 3 doses 5 mg/kg",reductions
same,reduction of HMGB1 protein level compared to the IRI-vehicle group,"[2]; kidney tissue, western blot, 3 doses 5 mg/kg",30%
same,induction of IL-17,[2]; [15],blockade of induction
same,induction of TNF-α,[2]; [15],blockade of induction
same,IL-24 mRNA,[2]; [16],significantly induces
same,anti-inflammatory cytokine IL-4 mRNA,[2]; [16],significantly induces
same,anti-inflammatory cytokine IL-10 mRNA,[2]; [16],significantly induces
same,serum KIM-1,[3]; [17],significantly reducing
same,serum NGAL,[3]; [17],significantly reducing
same,serum creatinine,[3]; [17],significantly reducing
same,"renal protection from IRI (serum NGAL, creatinine, KIM-1)",[3]; 3 doses of 5 mg/kg,markedly protected kidney from IRI
same,serum PGE2 level,"[4]; BI30 mice at 24 hours, prophylaxis",significantly decreased
same,post-IRI peaks of renal PGE2 at 0.5 and 14 hours,"[4]; IRI mice, single pre-IRI dose, kidney tissue",substantially block
same,renal PGE2 peak over baseline before IRI,"[4]; mice, single pre-IRI dose, kidney tissue",5.12 fold
same,chemical stability when incubated with hepatocyte extracts,[5],chemically stable
same,toxicity,[6]; IP into mice at 0.3 μmole/per mouse twice daily for 21 days,no toxicity
same,immediate toxicity over 24 hours,[6]; IP into mice at 0.6 μmole/per mouse,no immediate toxicity
same,immediate toxicity over 24 hours,[6]; IP into mice at 1.2 μmole/per mouse,no immediate toxicity
same,PGE2 production by cell lines,[7],increase PGE2 production by cell lines
same,"level of PGE2 in kidney tissue, time course","[8]; 5 mg/kg i.p., 1 and 3 hours",peaked at 1 hour at nearly twice as high as at baseline
same,endogenous PGE2 levels in kidney tissue,"[8]; 3 hours after i.p. 2.5 or 5 mg/kg, vs vehicle","in dose-dependent fashion, upregulated"
same,chemical stability in aqueous solutions,[9],chemically stable
same,induction of KIM-1 (time course),[10],notably effective blockade of induction
same,induction of creatinine (time course),[10],notably effective blockade of induction
same,reduction of peak induction of NGAL,[10]; peak at 12 hours,20%
same,histologic renal injury score,"[11]; 3 doses 5 mg/kg i.p., POD1, H&E, outer medulla",reducing
same,count of TUNEL positive apoptotic cells,"[11]; 3 doses 5 mg/kg i.p., POD1, outer medulla",reducing
same,tissue congestion in the outer medulla (gross pathology),"[11]; 3 doses 5 mg/kg i.p., POD1, vs IRI-vehicle",ameliorated
same,"renal injury (histopathology, tubular injury)","[11]; 3 doses 5 mg/kg, POD1, 5 mg/kg",markedly alleviated renal injury; also recorded: more effective than systemic administration of either exogenous PGE1 or PGE2
same,chemical stability when incubated with hepatocyte cell lines,[12],chemically stable
